Article PMC9130233, “An inhibitor of RORγ for chronic pulmonary obstructive disease treatment” (Scientific Reports, 2022)

Key:
[1] = test system: IL-22 in hPBMCs; experiment: IL-22 release, human PBMC, TCR activating conditions; assay type: cell-based; conditions: read-out: hIL-22 IC50
Method: An increase in the levels of Th17 dependent cytokine in the peripheral blood of COPD patients as compared to the Th1 and Th2 dependent cytokines has been well documented in a subset of COPD patients. A comparative study was performed under TCR activating conditions to evaluate the potencies of PCCR-1 for inhibition across Th1, Th2 and Th17 dependent cytokines using hPBMCs.
Human whole blood from healthy subjects were procured from Clinical Research Unit, Sanpada. Clinical Research Center Glenmark (Plot No. D, 508, Turbhe, TTC Industrial Area, MIDC, Sanpada, Navi Mumbai, Maharashtra 400705, India). PBMCs were isolated using heparinized blood with Ficoll Histopaque. Briefly, the cells were seeded in 96-well plate pre-coated with human anti-CD3 mAb (10 µg/mL), post 30 min of compound treatment cells were stimulated with human anti-CD28 mAb (2 µg/mL). After 72 h of culture, the supernatant was collected for Th1/Th2 cytokines; IFN-γ, IL-2, IL-4 and IL-10 and measured by ELISA. For Th17 polarization assay, the following cytokine cocktail was used: IL-1β (10 ng/ml), IL-23(10 ng/ml), IL-6 (50 ng/ml), TGF-β1 (3 ng/ml), IL-2 (20U/ml) and supernatants were used for measuring IL-17 and IL-22 by ELISA.

[2] = test system: IL-17A release in mouse splenocytes; experiment: IL-17A release, mouse splenocytes, anti-CD3 + anti-CD28; assay type: cell-based; conditions: Splenocyte, anti-CD3 + anti-CD28, n = 13, read-out: Cellular activity: Mouse IC50, IL-17A release
Method: Inhibition of RORγ by PCCR-1 was also estimated in a functional assay by measuring the inhibition of Th17 dependent cytokine IL-17A release in human peripheral blood mononuclear cells (PBMCs), mouse splenocytes and canine PBMC stimulated with their respective anti-CD3 and anti-CD28 antibodies.
Splenocytes were prepared from 6–8 week old BALB/c mice and cells were seeded in 96-well plates coated with mouse anti-CD3 mAb (10 µg/mL). Cells were treated with test compounds for 30 min followed by stimulation with mouse anti- CD28 mAb (3 µg/mL) for 72 h at 37 °C in 5% CO2 incubator. The supernatant was used for estimating mouse IL-17 by ELISA.

[3] = target: T1, human RORγt (Homo sapiens, UniProt P51449); experiment: RORγ transactivation assay in transfected HEK293 cells; assay type: cell-based; conditions: HEK293, n = 4; read-out: potency, inhibition of human RORγt in transactivation assay
T1 construct: Gal4-DBD human RORγt hinge LBD/pcDNA 3.1; expressed in transfected cells; host or cells: HEK293
T1 sequence (P51449 97-518): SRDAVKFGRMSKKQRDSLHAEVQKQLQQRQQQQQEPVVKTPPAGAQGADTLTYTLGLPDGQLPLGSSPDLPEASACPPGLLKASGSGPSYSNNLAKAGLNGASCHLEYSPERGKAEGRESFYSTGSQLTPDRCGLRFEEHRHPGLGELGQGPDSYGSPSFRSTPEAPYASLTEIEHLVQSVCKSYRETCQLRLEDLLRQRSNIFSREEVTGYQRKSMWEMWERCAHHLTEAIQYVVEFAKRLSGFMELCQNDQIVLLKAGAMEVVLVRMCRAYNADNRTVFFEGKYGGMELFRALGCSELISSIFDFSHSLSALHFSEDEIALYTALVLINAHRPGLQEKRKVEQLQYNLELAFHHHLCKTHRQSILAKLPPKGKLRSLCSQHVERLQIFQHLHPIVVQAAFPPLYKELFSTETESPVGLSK
Method: For RORg transactivation assay the HEK293 cells were seeded in 100 mm dish and transfected with 4.5 µg total DNA (2.25 µg of pGL4.31 Luc2/GAL4-UAS hygro and 2.25 µg Gal4-DBD human RORγt hinge LBD/pcDNA 3.1 and 0.112 µg of pRL-CMV using Effectene transfection reagent (Qiagen). After 16–20 h post transfection, cells were reseeded at the density of 0.05 M cells per well of 96 well plate in DMEM high glucose containing 2% charcoal stripped serum. 4–6 h post seeding, PCCR-1 treatment was given for 24 h, followed by cells lysis with 1X Passive Lysis buffer of Dual luciferase kit (Promega). The signal was detected after addition of stop and glo reagent of the kit in luminescence mode.

[4] = target: T2, Alpha 1A (Homo sapiens, UniProt P35348); experiment: Cerep panel, Alpha 1A (antagonist); assay type: cell-based; conditions: read-out: IC50 Alpha 1A (antg)
T2 construct: Eurofins Cerep
T2 sequence (P35348 whole entry): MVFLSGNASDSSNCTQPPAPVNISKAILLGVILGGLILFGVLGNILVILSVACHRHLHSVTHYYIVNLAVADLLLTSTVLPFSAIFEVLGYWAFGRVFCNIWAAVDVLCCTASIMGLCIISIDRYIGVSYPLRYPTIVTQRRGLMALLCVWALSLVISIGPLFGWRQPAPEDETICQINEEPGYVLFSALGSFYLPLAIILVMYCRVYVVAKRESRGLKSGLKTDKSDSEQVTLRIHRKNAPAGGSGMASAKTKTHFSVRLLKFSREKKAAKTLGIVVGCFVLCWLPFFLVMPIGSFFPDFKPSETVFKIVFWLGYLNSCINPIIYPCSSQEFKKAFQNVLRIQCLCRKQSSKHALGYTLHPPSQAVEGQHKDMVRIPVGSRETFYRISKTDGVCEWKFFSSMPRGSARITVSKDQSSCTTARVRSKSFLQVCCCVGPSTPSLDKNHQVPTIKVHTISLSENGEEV
Excerpt: (§1) Based on the homology of the ligand binding domains, 3 different isoforms of ROR (hRORα, hRORβ and hRORγ) are reported. Small variations in the LBD regions possibly lead to differences in competitive binding between the nuclear receptors of the ROR isoforms (Fig. 1b). Similar to the assessment of RORγ binding assay, TR-FRET binding assays were also used to assess the affinity of PCCR-1 for other ROR isoforms. […] This was reconfirmed in cellular functional assays for the selected isoforms and nuclear receptors using Gal4 DBD with luciferase reporter system from Indigo (PA, USA). […] In addition, both cellular agonist and antagonist effects as well as for enzyme activity were evaluated with a known reference compound for each target, using a radiolabeled method (Eurofins Cerep, France, Table 1).

[5] = Single dose intranasal PK study in mice; assay type: in vivo, mouse
Method: A single dose intranasal PK study of PCCR-1 was conducted in male C57 mice at 20 and 50 µg/animal dose. The formulation was prepared in saline with 0.1% v/v tween-80 as the wetting agent. Animals were anesthetized briefly using gaseous isoflurane and oxygen mixture and a 40 µL of the formulation was instilled into both the nostrils (20 µL each) once the animal reached a regular breathing pattern and at pre-determined time points (0.25 h, 0.5 h, 1 h, 2 h, 4 h, 8 h and 24 h), approximately 0.3 mL of blood samples were collected using retro-orbital puncture in suitable anticoagulant (K3 EDTA). The animals were immediately sacrificed and lung was isolated. Blood samples were centrifuged (3000 rpm, 5 min) and plasma was harvested. Lung samples were homogenized in PBS buffer (pH 7.4) and centrifuged to collect the supernatant. Both plasma and lung samples were extracted using methyl t-butyl ether, mixed and centrifuged. The supernatant samples obtained after centrifugation were dried and reconstituted with acetonitrile-ammonium acetate buffer (90:10). The samples were mixed and analyzed in LCMS/MS for the analyte concentrations. Concentration vs time values were subjected to non-compartmental analysis using Phoenix WinNonlin® (Version 6.4) to estimate the appropriate pharmacokinetics parameters.

[6] = test system: hFXR; experiment: Nuclear receptors: functional assay, hFXR antagonism; assay type: cell-based, human; conditions: nuclear receptors: functional assays
Excerpt: as §1

[7] = test system: RORγt and IL-17A mRNA in human PBMC; experiment: RT-PCR mRNA expression in TCR stimulated human PBMC; assay type: cell-based; conditions: PCCR-1 treated PBMCs, healthy subjects
Method: For RT-PCR from human PBMC, 5X 10^6 PBMCs were seeded in 6well pre-coated human anti-CD3 mAb (10 µg/mL) plate, post 30 min of compound treatment cells were stimulated with human anti-CD28 mAb (2 µg/mL). After 48 h cells were pelleted, washed with PBS and total RNA was extracted using TRI reagent. 3 µg of DNase treated RNA was reverse transcribed using iScript select cDNA synthesis kit (Biorad Hercules, CA, USA) to produce single-stranded cDNA. RT-PCR was performed with an real-time thermal cycler Eppendorf Mastercycler Ep (Eppendorf AG, Hamburg, Germany) using iTaq SYBR Green Supermix with ROX kit (Biorad Hercules, CA, USA) with human IL-17A specific primers: 5’- […]-3’(sense primer) and 5'-[…]-3' (antisense primer) and human RORγt specific primers: 5’-[…]-3’ (sense primer) and 5’-[…]-3’ (antisense primer). RT-PCR reaction was carried out for 40 cycles at 95 °C for 15 s, 60 °C for 15 s and 60 °C for 40 s. Data was interpreted using 2(-∆CT) Livak method of analysis.

## CCn1c(C(C)(C)Oc2ccc(F)cc2F)nc2cc(NC(=O)Cc3ccc(S(=O)(=O)CC)cc3)ccc21 [PCCR-1]
[1]
  IC50: 297 nM
[2]
  IC50: 766 nM
[3]
  IC50: 111 nM
[4]
  IC50: 190 nM
[5]
  quantifiable levels in lungs, time post dose: up to 24 h
[5]; both doses (20 and 50 µg)
  mean lung to plasma AUClast ratio: > 1000
  time of peak lung concentrations post dose: 2 to 4 h
[5]; male, C57, mouse, lung/plasma, inhaled or intranasal, 50 ug, both doses (20 and 50 µg), read-out: mean lung to plasma Cmax ratio
  Kp: > 1000
[6]
  hFXR (antagonism): ~10 µM
[7]
  IL-17A mRNA expression: significantly inhibited
  RORγt mRNA expression: downregulation
